Reference: ChEMBL document CHEMBL4477208, “Discovery and Rational Design of Pteridin-7(8H)-one-Based Inhibitors Targeting FMS-like Tyrosine Kinase 3 (FLT3) and Its Mutants” (J Med Chem, 2016)
The source made the active and inactive calls. The calls are words filed in the database; no cut-off is given here.

Legend:
MCF7 = assay: Antiproliferative activity against human MCF7 cells after 72 hrs by SRB assay; format: functional, cell-based; conditions: MCF7, 72 h
MV4-11 [1] = assay: Induction of apoptosis in human MV4-11 cells assessed as late apoptotic cells at 10000 nM after 48 hrs by annexin V/propidium iodide staining based FACS analysis (reference value: 3.01%); format: functional
[2] = biological target: Receptor-type tyrosine-protein kinase FLT3 (Homo sapiens) (UniProt P36888); assay: Inhibition of human FLT3 expressed in bacterial system assessed as remaining enzyme activity at 1 uM relative to untreated control
MV4-11 [3] = assay: Cell cycle arrest in human MV4-11 cells assessed as accumulation at G2 phase at 100 nM after 48 hrs by PI/RNase staining based FACS analysis (reference value: 13.95%); format: functional
DMS-79 = assay: Antiproliferative activity against human DMS79 cells after 72 hrs by MTT assay; format: functional, cell-based; conditions: DMS-79, 72 h
MV4-11 [4] = assay: Cell cycle arrest in human MV4-11 cells assessed as cell debris level at 100 nM after 48 hrs by PI/RNase staining based FACS analysis; format: functional
MV4-11 [5] = assay: Antitumor activity against human MV4-11 cells xenografted in nude BALB/c mouse assessed as tumor growth inhibition at 50 mg/kg, ip qd for 14 days measured every 2 days; format: functional; conditions: MV4-11, ip, read-out: TGI
MV4-11 [6] = assay: Antitumor activity against human MV4-11 cells xenografted in nude BALB/c mouse assessed as reduction in tumor cell proliferation by measuring Ki67 positive cells at 50 mg/kg, po qd measured after 1 to 3 days by immunohistochemical assay; format: functional, organism-based
[7] = biological target: Platelet-derived growth factor receptor beta (Homo sapiens) (UniProt P09619); assay: Inhibition of human PDGFRB expressed in bacterial system assessed as remaining enzyme activity at 1 uM relative to untreated control
HT-29 = assay: Antiproliferative activity against human HT-29 cells after 72 hrs by SRB assay; format: functional, cell-based; conditions: HT-29, 72 h
[8] = system: Receptor-type tyrosine-protein kinase FLT3 (Homo sapiens), P36888 [N841I]; assay: Inhibition of human FLT3 N841I mutant expressed in bacterial system assessed as remaining enzyme activity at 1 uM relative to untreated control
HCT-116 = assay: Antiproliferative activity against human HCT116 cells after 72 hrs by SRB assay; format: functional, cell-based; conditions: HCT-116, 72 h
[9] = AUC (0 to infinity) in overnight fasted Sprague-Dawley rat plasma at 10 mg/kg administered via oral gavage up to 24 hrs by LC-MS/MS analysis; format: ADME, organism-based; parameters: dose 10 mg/kg, route oral, time infinity
MV4-11 [10] = assay: Cell cycle arrest in human MV4-11 cells assessed as accumulation at subG1 phase after 48 hrs by PI/RNase staining based FACS analysis; format: functional
MV4-11 [11] = assay: Cell cycle arrest in human MV4-11 cells assessed as accumulation at G0/G1 phase after 48 hrs by PI/RNase staining based FACS analysis; format: functional
MV4-11 [12] = assay: Induction of apoptosis in human MV4-11 cells assessed as necrotic cells at 100 nM after 48 hrs by annexin V/propidium iodide staining based FACS analysis (reference value: 0.05%); format: functional
MV4-11 [13] = assay: Cell cycle arrest in human MV4-11 cells assessed as accumulation at S phase at 10 nM after 48 hrs by PI/RNase staining based FACS analysis (reference value: 16.50%); format: functional
RKO = assay: Antiproliferative activity against human RKO cells after 72 hrs by SRB assay; format: functional, cell-based
[14] = biological target: Interleukin-1 receptor-associated kinase 1 (Homo sapiens) (UniProt P51617); assay: Inhibition of human IRAK1 expressed in mammalian system assessed as remaining enzyme activity at 1 uM relative to untreated control
[15] = biological target: Receptor-type tyrosine-protein kinase FLT3 (Homo sapiens, UniProt P36888, ITD); assay: Binding affinity to human partial length FLT3 ITD mutant expressed in bacterial expression system after 1 hr
[16] = biological target: Macrophage colony-stimulating factor 1 receptor (Homo sapiens) (UniProt P07333); assay: Inhibition of human CSF1R expressed in bacterial system assessed as remaining enzyme activity at 1 uM relative to untreated control
[17] = Oral bioavailability in overnight fasted Sprague-Dawley rat plasma at 10 mg/kg administered via oral gavage up to 24 hrs by LC-MS/MS analysis; format: ADME, organism-based
MV4-11 [18] = assay: cells; conditions: Homo sapiens, MV4-11, 72 h
Description: Antiproliferative activity against human MV4-11 cells harboring FLT3-ITD mutant after 72 hrs by MTT assay

A549 = assay: Antiproliferative activity against human A549 cells after 72 hrs by SRB assay; format: functional, cell-based; conditions: A549, 72 h
[19] = Ratio of IC50 for human WI38 cells to IC50 for human MV4-11 cells; format: toxicity; conditions: WI38 cells versus MV4-11 cells, read-out: Ratio IC50

Macrophage colony-stimulating factor 1 receptor (Homo sapiens), sequence (P07333 whole entry): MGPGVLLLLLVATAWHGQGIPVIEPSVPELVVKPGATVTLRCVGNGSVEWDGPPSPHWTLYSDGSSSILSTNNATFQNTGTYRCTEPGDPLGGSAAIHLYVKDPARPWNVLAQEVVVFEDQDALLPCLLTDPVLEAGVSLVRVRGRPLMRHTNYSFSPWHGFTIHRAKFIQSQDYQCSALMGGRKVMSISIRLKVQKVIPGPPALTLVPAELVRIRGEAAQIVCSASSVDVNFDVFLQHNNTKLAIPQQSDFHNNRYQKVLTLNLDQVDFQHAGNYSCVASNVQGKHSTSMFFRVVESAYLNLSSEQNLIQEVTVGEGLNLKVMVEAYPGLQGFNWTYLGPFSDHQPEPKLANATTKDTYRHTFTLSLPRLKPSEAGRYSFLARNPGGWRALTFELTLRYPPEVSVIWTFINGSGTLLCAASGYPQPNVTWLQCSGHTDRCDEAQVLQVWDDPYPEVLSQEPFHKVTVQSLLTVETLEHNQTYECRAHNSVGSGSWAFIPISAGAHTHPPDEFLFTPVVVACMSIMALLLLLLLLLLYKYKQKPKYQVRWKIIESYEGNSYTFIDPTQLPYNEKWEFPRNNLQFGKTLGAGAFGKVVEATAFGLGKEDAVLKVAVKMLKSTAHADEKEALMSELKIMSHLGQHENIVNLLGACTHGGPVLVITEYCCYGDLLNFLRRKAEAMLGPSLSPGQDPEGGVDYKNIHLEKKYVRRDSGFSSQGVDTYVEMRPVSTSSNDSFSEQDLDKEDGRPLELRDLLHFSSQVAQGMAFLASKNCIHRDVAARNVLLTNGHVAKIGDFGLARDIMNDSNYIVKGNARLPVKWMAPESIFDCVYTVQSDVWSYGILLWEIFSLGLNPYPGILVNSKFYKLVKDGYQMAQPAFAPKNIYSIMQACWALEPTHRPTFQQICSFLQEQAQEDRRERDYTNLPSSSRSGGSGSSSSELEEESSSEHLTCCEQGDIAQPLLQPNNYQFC
Platelet-derived growth factor receptor beta (Homo sapiens), sequence (P09619 whole entry): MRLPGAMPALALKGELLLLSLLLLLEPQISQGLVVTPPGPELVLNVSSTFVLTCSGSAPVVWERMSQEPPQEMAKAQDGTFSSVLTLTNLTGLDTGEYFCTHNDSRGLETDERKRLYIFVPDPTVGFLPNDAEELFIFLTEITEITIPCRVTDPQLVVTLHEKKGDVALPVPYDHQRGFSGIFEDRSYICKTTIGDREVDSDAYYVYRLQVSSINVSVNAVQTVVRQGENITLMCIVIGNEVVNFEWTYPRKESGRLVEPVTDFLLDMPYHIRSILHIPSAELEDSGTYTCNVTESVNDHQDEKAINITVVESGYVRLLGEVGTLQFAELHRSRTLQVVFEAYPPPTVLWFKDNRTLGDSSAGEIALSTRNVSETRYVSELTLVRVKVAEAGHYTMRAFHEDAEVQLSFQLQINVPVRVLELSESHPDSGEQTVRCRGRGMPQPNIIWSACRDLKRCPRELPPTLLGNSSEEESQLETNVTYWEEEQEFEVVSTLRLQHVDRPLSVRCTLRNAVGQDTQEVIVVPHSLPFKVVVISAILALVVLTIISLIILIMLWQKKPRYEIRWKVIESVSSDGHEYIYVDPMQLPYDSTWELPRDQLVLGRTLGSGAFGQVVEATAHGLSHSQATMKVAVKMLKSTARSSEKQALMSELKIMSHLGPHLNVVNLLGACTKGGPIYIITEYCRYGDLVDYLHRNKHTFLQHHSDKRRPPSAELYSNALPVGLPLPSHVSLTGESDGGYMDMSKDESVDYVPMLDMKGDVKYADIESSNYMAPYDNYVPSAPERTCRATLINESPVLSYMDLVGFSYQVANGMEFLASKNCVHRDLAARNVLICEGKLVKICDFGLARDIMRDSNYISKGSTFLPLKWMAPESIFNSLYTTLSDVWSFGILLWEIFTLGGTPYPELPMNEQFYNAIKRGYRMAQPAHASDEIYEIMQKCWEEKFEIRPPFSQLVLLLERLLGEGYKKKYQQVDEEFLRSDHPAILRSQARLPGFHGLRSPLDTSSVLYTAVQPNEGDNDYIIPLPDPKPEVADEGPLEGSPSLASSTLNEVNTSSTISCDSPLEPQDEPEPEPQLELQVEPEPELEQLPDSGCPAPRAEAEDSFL
Interleukin-1 receptor-associated kinase 1 (Homo sapiens), sequence (P51617 whole entry, looked up): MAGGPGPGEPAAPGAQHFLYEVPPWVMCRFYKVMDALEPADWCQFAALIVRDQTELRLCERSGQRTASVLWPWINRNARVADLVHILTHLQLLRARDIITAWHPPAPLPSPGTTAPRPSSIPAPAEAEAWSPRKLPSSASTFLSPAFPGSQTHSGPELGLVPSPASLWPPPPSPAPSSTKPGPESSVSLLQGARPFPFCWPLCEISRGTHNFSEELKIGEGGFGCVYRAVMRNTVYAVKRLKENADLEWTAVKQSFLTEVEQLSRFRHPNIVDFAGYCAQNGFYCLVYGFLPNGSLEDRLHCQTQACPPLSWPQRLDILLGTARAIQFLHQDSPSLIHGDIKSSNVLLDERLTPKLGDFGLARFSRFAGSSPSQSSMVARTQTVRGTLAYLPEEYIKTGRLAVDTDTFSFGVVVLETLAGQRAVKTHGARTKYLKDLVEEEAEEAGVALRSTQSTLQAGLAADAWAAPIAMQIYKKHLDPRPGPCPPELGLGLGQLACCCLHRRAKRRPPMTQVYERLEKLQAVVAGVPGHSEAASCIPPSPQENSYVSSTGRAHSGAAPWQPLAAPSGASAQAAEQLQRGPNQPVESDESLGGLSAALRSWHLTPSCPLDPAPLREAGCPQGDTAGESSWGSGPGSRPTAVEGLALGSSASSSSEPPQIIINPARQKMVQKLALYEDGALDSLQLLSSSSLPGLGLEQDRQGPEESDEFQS

Cc1cc(Nc2ncc3ncc(=O)n(-c4ccc(N)cc4)c3n2)ccc1N1CCN(C)CC1
IC50 (MCF7): > 10000 nM
Activity (MV4-11 [1]): 31.3%
Activity [2]: < 1%
Activity (MV4-11 [3]): 0%
IC50 (DMS-79): > 10000 nM
Activity (MV4-11 [4]): 12.02%
inhibition in vivo at 50 mg/kg (MV4-11 [5]): 136%
Activity (MV4-11 [6]): Active
Activity [7]: < 1%
IC50 (HT-29): 3020 nM
Activity [8]: < 1%
IC50 (HCT-116): 2360 nM
AUC(0-inf) [9]: 311 ng·h/mL
Activity (MV4-11 [10]): Dose-dependent effect
Activity (MV4-11 [11]): Dose-dependent effect
Activity (MV4-11 [12]): 0.25%
Activity (MV4-11 [13]): 18.4%
IC50 (RKO): 1930 nM
Activity [14]: < 1%
Kd [15]: 6.9 nM
Activity [16]: < 1%
bioavailability [17]: 26.4%
IC50 (MV4-11 [18]): 51 nM
IC50 (A549): > 10000 nM
selectivity ratio [19]: 33 to 81
